pIC50: −log10 of the molar value.
Biological target: T1, recombinant murine Aurora A enzyme (Mus musculus, UniProt P97477)
T1 construct: hexahistidine (His6) (N); made in house; host or cells: insect cells, baculovirus (Bac-to-Bac, Invitrogen)
Assay: Aurora A DELFIA Kinase Assay
Format: biochemical
Settings: mouse Aurora A, 250 μM ATP; threshold less than or equal to 100 nM; read-out: IC50
Excerpt: Recombinant mouse Aurora A with an amino-terminus hexahistidine tag (His-Aurora A) was expressed using a standard baculovirus vector and insect cell expression system (Bac-to-Bac®, Invitrogen).
Soluble, recombinant mouse Aurora A was purified from insect cells using Ni-NTA agarose (Qiagen) as described by the manufacturer and further purified over an S75 size exclusion column (Amersham Pharmacia Biotech).
Aurora A DELFIA® Kinase Assay
The enzymatic reaction mixture, with and without Aurora inhibitors, was incubated for 15 minutes at room temperature before termination with 100 μL of stop buffer (1% BSA, 0.05% Surfact-AMPS-20, and 100 mM EDTA). A total of 100 μL of the enzyme reaction mixture was transferred to wells of a Neutravidin-coated 96-well plate (Pierce) and incubated at room temperature for 30 minutes. The wells were washed with wash buffer (25 mM Tris, 150 mM sodium chloride, and 0.1% Tween 20) and incubated for 1 hour with 100 μL of antibody reaction mixture containing 1% BSA, 0.05% Surfact-AMPS-20, anti-phospho-PKA rabbit polyclonal antibody (1:2000, New England Biolabs), and europium labeled anti-rabbit IgG (1:2000, Perkin Elmer). The wells were washed and then the bound europium was liberated using 100 μL of Enhancement Solution (Perkin Elmer). Quantification of europium was done using a Wallac™ EnVision (Perkin Elmer).

T1 sequence (P97477 whole entry): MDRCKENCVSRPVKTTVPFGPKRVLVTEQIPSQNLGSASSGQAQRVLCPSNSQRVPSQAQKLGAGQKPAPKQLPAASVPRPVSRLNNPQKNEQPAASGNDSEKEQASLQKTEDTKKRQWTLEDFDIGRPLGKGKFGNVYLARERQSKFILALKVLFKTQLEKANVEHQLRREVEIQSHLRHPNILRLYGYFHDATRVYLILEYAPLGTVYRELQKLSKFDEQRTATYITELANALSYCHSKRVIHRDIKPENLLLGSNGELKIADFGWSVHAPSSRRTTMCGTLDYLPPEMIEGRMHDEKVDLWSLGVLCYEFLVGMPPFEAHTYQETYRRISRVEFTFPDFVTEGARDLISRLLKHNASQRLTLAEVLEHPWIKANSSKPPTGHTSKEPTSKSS

pIC50, ≥ 7.00:
COc1cccc(F)c1C1=NCc2cnc(Nc3ccc(C(=O)N(C)CCCN(C)C)cc3)nc2-c2ccc(Cl)cc21 [Compound I-225, 4-{[9-chloro-7-(2-fluoro-6-methoxyphenyl)-5H-pyrimido[5,4-d][2]benzazepin-2-yl]amino}-N-[3-(dimethylamino)propyl]-N-methylbenzamide]
CC(C)(N)C(=O)Nc1ccc(Nc2ncc3c(n2)-c2ccc(Cl)cc2C(c2c(F)cccc2F)=NC3)cc1 [Compound I-308, 2-amino-N-(4-{[9-chloro-7-(2,6-difluorophenyl)-5H-pyrimido[5,4-d][2]benzazepin-2-yl]amino}phenyl)-2-methylpropanamide]
CN(C)C1CCN(C(=O)c2ccc(Nc3ncc4c(n3)-c3ccc(Cl)cc3C(c3c(F)cccc3F)=NC4)cc2Cl)CC1 [Compound I-313, 9-chloro-N-(3-chloro-4-{[4-(dimethylamino)piperidin-1-yl]carbonyl}phenyl)-7-(2,6-difluorophenyl)-5H-pyrimido[5,4-d][2]benzazepin-2-amine]
NCC#Cc1ccc2c(c1)C(c1c(F)cccc1F)=NCc1cnc(Nc3ccc(C(=O)O)cc3)nc1-2 [Compound I-272, 4-{[9-(3-aminoprop-1-yn-1-yl)-7-(2,6-difluorophenyl)-5H-pyrimido[5,4-d][2]benzazepin-2-yl]amino}benzoic acid]
O=C(c1ccc(Nc2ncc3c(n2)-c2ccc(Cl)cc2C(c2ccccc2F)=NC3)cc1)N1CCN(CCN2CCOCC2)CC1 [Compound I-189, {4-[9-Chloro-7-(2-fluoro-phenyl)-5H-benzo[c]pyrimido[4,5-e]azepin-2-ylamino]-phenyl}-[4-(2-morpholin-4-yl-ethyl)-piperazin-1-yl]-methanone]
CNC1CCN(C(=O)c2ccc(Nc3ncc4c(n3)-c3ccc(Cl)cc3C(c3c(F)cccc3Cl)=NC4)cc2)CC1 [Compound I-325, 9-chloro-7-(2-chloro-6-fluorophenyl)-N-(4-{[4-(methylamino)piperidin-1-yl]carbonyl}phenyl)-5H-pyrimido[5,4-d][2]benzazepin-2-amine]
CNC1CCN(C(=O)c2ccc(Nc3ncc4c(n3)-c3ccc(Cl)cc3C(c3ccccc3C(F)(F)F)=NC4)cc2)CC1 [Compound I-288, 9-chloro-N-(4-{[4-(methylamino)piperidin-1-yl]carbonyl}phenyl)-7-[2-(trifluoromethyl)phenyl]-5H-pyrimido[5,4-d][2]benzazepin-2-amine]
O=C(O)c1ccc(Nc2ncc3c(n2)-c2ccc(Br)cc2C(c2c(F)cccc2F)=NC3)cc1 [Compound I-274, 4-{[9-bromo-7-(2,6-difluorophenyl)-5H-pyrimido[5,4-d][2]benzazepin-2-yl]amino}benzoic acid]
COc1cccc(F)c1C1=NCc2cnc(Nc3cccc(C(=O)N4CCC(N(C)C)CC4)c3)nc2-c2ccc(Cl)cc21 [Compound I-229, 9-chloro-N-(3-{[4-(dimethylamino)piperidin-1-yl]carbonyl}phenyl)-7-(2-fluoro-6-methoxyphenyl)-5H-pyrimido[5,4-d][2]benzazepin-2-amine]
Cc1ccc2c(c1)C(c1ccccc1F)=NCc1cnc(Nc3ccc(C(=O)N4CCN(C)CC4)cc3)nc1-2 [Compound I-14, {4-[7-(2-Fluoro-phenyl)-9-methyl-5H-benzo[c]pyrimido[4,5-e]azepin-2-ylamino]-phenyl}-(4-methyl-piperazin-1-yl)-methanone]
NC1CCN(C(=O)c2ccc(Nc3ncc4c(n3)-c3ccc(Cl)cc3C(c3ccccc3F)=NC4)cc2)CC1 [Compound I-17, (4-Amino-piperidin-1-yl)-{4-[9-chloro-7-(2-fluoro-phenyl)-5H-benzo[c]pyrimido[4,5-e]azepin-2-ylamino]-phenyl}-methanone]
CN(C)CCCN(C)C(=O)c1ccc(Nc2ncc3c(n2)-c2ccc(Cl)cc2C(c2c(F)cccc2F)=NC3)cc1 [Compound I-185, 4-[9-Chloro-7-(2,6-difluoro-phenyl)-5H-benzo[c]pyrimido[4,5-e]azepin-2-ylamino]-N-(3-dimethylamino-propyl)-N-methyl-benzamide]
CNC1CCN(C(=O)c2ccc(Nc3ncc4c(n3)-c3ccc(Cl)cc3C(c3ccccn3)=NC4)cc2)CC1 [Compound I-316, 9-chloro-N-(4-{[4-(methylamino)piperidin-1-yl]carbonyl}phenyl)-7-pyridin-2-yl-5H-pyrimido[5,4-d][2]benzazepin-2-amine]
CN(C)C1CCN(C(=N)NC(=O)c2ccc(Nc3ncc4c(n3)-c3ccc(Cl)cc3C(c3c(F)cccc3F)=NC4)cc2)C1 (centres unmarked) [Compound I-237, 4-[9-Chloro-7-(2,6-difluoro-phenyl)-5H-benzo[c]pyrimido[4,5-e]azepin-2-ylamino]-N-[(3-dimethylamino-pyrrolidin-1-yl)-imino-methyl]-benzamide]
CNC1CN(C(=O)c2ccc(Nc3ncc4c(n3)-c3ccc(Cl)cc3C(c3c(F)cccc3Cl)=NC4)cc2)C1 [Compound I-351, 9-chloro-7-(2-chloro-6-fluorophenyl)-N-(4-{[3-(methylamino)azetidin-1-yl]carbonyl}phenyl)-5H-pyrimido[5,4-d][2]benzazepin-2-amine]
COc1cccc(F)c1C1=NCc2cnc(Nc3ccc(C(=O)N4CCN(C)CC4)cc3)nc2-c2ccc(Cl)cc21 [Compound I-233, 9-chloro-7-(2-fluoro-6-methoxyphenyl)-N-{4-[(4-methylpiperazin-1-yl)carbonyl]phenyl}-5H-pyrimido[5,4-d][2]benzazepin-2-amine]
CC1CN(C(=O)c2ccc(Nc3ncc4c(n3)-c3ccc(Cl)cc3C(c3ccccc3F)=NC4)cc2)CC(C)N1 (centres unmarked) [Compound I-111, {4-[9-Chloro-7-(2-fluoro-phenyl)-5H-benzo[c]pyrimido[4,5-e]azepin-2-ylamino]-phenyl}-(3,5-dimethyl-piperazin-1-yl)-methanone]
CN(C)CCCc1cccc(Nc2ncc3c(n2)-c2ccc(Cl)cc2C(c2c(F)cccc2F)=NC3)c1 [Compound I-372, 9-chloro-7-(2,6-difluorophenyl)-N-{3-[3-(dimethylamino)propyl]phenyl}-5H-pyrimido[5,4-d][2]benzazepin-2-amine]
COc1cccc(F)c1C1=NCc2cnc(Nc3cccc(C(=O)N4CC(N(C)C)C4)c3)nc2-c2ccc(Cl)cc21 [Compound I-227, 9-chloro-N-(3-{[3-(dimethylamino)azetidin-1-yl]carbonyl}phenyl)-7-(2-fluoro-6-methoxyphenyl)-5H-pyrimido[5,4-d][2]benzazepin-2-amine]
CNC1CN(C(=O)c2ccc(Nc3ncc4c(n3)-c3ccc(Cl)cc3C(c3ccccc3C(F)(F)F)=NC4)cc2)C1 [Compound I-297, 9-chloro-N-(4-{[3-(methylamino)azetidin-1-yl]carbonyl}phenyl)-7-[2-(trifluoromethyl)phenyl]-5H-pyrimido[5,4-d][2]benzazepin-2-amine]
C[C@@H]1CN(C(=O)c2csc(Nc3ncc4c(n3)-c3ccc(Cl)cc3C(c3c(F)cccc3F)=NC4)n2)CCN1 [Compound I-365, 9-chloro-7-(2,6-difluorophenyl)-N-(4-{[(3R)-3-methylpiperazin-1-yl]carbony}-1,3-thiazol-2-yl)-5H-pyrimido[5,4-d][2]benzazepin-2-amine]
CN(C)C1CCN(C(=O)c2ccc(Nc3ncc4c(n3)-c3ccc(Cl)cc3C(c3c(F)cccc3F)=NC4)cc2Cl)C1 (centres unmarked) [Compound I-215, 9-chloro-N-(3-chloro-4-{[3-(dimethylamino)pyrrolidin-1-yl]carbonyl}phenyl)-7-(2,6-difluorophenyl)-5H-pyrimido[5,4-d][2]benzazepin-2-amine]
NCC#Cc1cccc(Nc2ncc3c(n2)-c2ccc(Cl)cc2C(c2c(F)cccc2F)=NC3)c1 [Compound I-338, N-[3-(3-aminoprop-1-yn-1-yl)phenyl]-9-chloro-7-(2,6-difluorophenyl)-5H-pyrimido[5,4-d][2]benzazepin-2-amine]
CC1(C)CN=C(c2ccc(Nc3ncc4c(n3)-c3ccc(Cl)cc3C(c3c(F)cccc3F)=NC4)cc2)N1 [Compound I-270, 9-chloro-7-(2,6-difluorophenyl)-N-[4-(5,5-dimethyl-4,5-dihydro-1H-imidazol-2-yl)phenyl]-5H-pyrimido[5,4-d][2]benzazepin-2-amine]
COc1cccc(F)c1C1=NCc2cnc(Nc3ccc(C(=O)N4CCC(N(C)C)CC4)cc3)nc2-c2ccc(Cl)cc21 [Compound I-186, {4-[9-Chloro-7-(2-fluoro-6-methoxy-phenyl)-5H-benzo[c]pyrimido-[4,5-e]azepin-2-ylamino]-phenyl}-(4-dimethylamino-piperidin-1-yl)-methanone]
NC1CCN(C(=O)c2ccc(Nc3ncc4c(n3)-c3ccc(Cl)cc3C(c3ccccn3)=NC4)cc2)C1 (centres unmarked) [Compound I-299, N-{4-[(3-aminopyrrolidin-1-yl)carbonyl]phenyl}-9-chloro-7-pyridin-2-yl-5H-pyrimido[5,4-d][2]benzazepin-2-amine]

From US9102678B2, “Compounds and methods for inhibiting mitotic progression” (Millennium Pharmaceuticals, Inc., priority 2004, dated 2015)
